Like-named read-outs stand apart in the source and are kept apart here.
What was measured:
Format in all cases: biochemical
[1] = molecular target: T1, NRH:quinone oxidoreductase 2 (NQO2) (Homo sapiens, UniProt P16083); assay: rhNQO2 resazurin reduction, 96-well fluorescence assay
T1 sequence (P16083 1-231): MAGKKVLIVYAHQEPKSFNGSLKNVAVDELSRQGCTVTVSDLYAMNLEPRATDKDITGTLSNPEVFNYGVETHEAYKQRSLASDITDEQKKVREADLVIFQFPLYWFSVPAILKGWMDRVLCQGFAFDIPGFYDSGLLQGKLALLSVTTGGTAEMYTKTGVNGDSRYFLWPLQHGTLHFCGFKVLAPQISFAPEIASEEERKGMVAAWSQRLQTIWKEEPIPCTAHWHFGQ

[2] = molecular target: T1, NRH:quinone oxidoreductase 2 (NQO2); assay: NRH-dependent inactivation of rhNQO2; conditions: read-out: rhNQO2 inhibition at 1μM ^a
[3] = molecular target: T1, NRH:quinone oxidoreductase 2 (NQO2); assay: NRH-dependent inactivation of rhNQO2; conditions: read-out: rhNQO2 inhibition at 1μM ^a; remark: listed apart in the source
[4] = molecular target: T1, NRH:quinone oxidoreductase 2 (NQO2); assay: NRH-dependent inactivation of rhNQO2; conditions: read-out: rhNQO2 inhibition at 1μM ^a; remark: listed apart in the source

Row | Compound | rhNQO2 resazurin reduction, 96-well fluorescence assay [1] | also measured
1 | CCN(CC)CCCC(C)Nc1ccnc2cc(Cl)ccc12 (stereo not shown) [chloroquine] | quercetin, imatinib, resveratrol, chloroquine, and melatonin for their ability to inhibit rhNQO2 activity in a cell-free system | –
2 | Cc1c(COc2ccc([N+](=O)[O-])cc2)c2c(n1C)C(=O)C=C(NCCCCN)C2=O [compound 1, 5-(4-aminobutyl)amino-1,2-dimethyl-3-[(4-nitrophenoxy)methyl]indole-4,7-dione] | – | inhibition at 1 µM [2]: 96%
3 | Cc1c(COc2c(F)cc(F)cc2F)c2c(n1C)C(=O)C=C(NCCCCN)C2=O [compound 2, 5-(4-aminobutyl)amino-1,2-dimethyl-3-[(2,4,6-trifluorophenoxy)methyl]indole-4,7-dione] | – | inhibition at 1 µM [3]: 96%
4 | Cc1c(COc2c(F)cc(F)cc2F)c2c(n1C)C(=O)C(NCCCCN)=CC2=O [compound 3, 6-(4-aminobutyl)amino-1,2-dimethyl-3-[(2,4,6-trifluorophenoxy)methyl]indole-4,7-dione] | – | inhibition at 1 µM [4]: 33%
5 | Cc1ccc(NC(=O)c2ccc(CN3CCN(C)CC3)cc2)cc1Nc1nccc(-c2cccnc2)n1 [imatinib] | quercetin, imatinib, resveratrol, chloroquine, and melatonin for their ability to inhibit rhNQO2 activity in a cell-free system | –
6 | O=c1c(O)c(-c2ccc(O)c(O)c2)oc2cc(O)cc(O)c12 [quercetin] | quercetin, imatinib, resveratrol, chloroquine, and melatonin for their ability to inhibit rhNQO2 activity in a cell-free system | –
7 | Oc1ccc(/C=C/c2cc(O)cc(O)c2)cc1 [resveratrol] | quercetin, imatinib, resveratrol, chloroquine, and melatonin for their ability to inhibit rhNQO2 activity in a cell-free system | –

Reference: paper PMC3291479 (2011)
